Patent US11078228B2, “Ectonucleotidase inhibitors and methods of use thereof” (Calithera Biosciences, Inc., priority 2018, dated 2021)

What was measured:
[1] = biological target: CD73 activity in cancer patient serum (Homo sapiens (Human), UniProt P21589); experiment: CD73 activity in cancer patient serum, LC/MS conversion of 15N5-AMP to 15N5-ADO; assay type: biochemical; conditions: TNAP inhibitor present
Description: Serum was procured from Discovery Life Sciences. Serum from head and neck squamous cell carcinoma (HNSCC), ovarian cancer, triple-negative breast cancer and esophageal cancer patients were incubated with a serial dilution of Compound 9 in the presence of a TNAP inhibitor. Conversion of ^15N5-AMP to ^15N5-ADO was measured by LC/MS. FIG. 10A depicts the sub-nanomolar inhibition of HNSCC serum. FIG. 10B depicts the sub-nanomolar inhibition of ovarian cancer serum. FIG. 10C depicts the sub-nanomolar inhibition of TNBC serum. FIG. 10D depicts the sub-nanomolar inhibition of esophageal cancer serum.

Human CD8+ T cells = experiment: Proliferation of human CD8+ T cells, CellTrace CFSE flow cytometry; assay type: cell-based; conditions: 100 μM, 4 days
Description: (§1) Viability of EG7 and A375 cells treated with 100 μM Compound 9 was measured using CellTiter-Glo after 3 days. Proliferation of human CD8+ T cells was measured by flow cytometry after 4 days of treatment with 100 μM Compound 9 using CellTrace CFSE Cell Proliferation Kit.

mouse plasma CD73 = mouse plasma CD73 (Mus musculus (Mouse), UniProt Q61503); experiment: Oral dosing pharmacodynamics: CD73 inhibition in plasma of dosed mice; assay type: in vivo; conditions: single oral dose 50 mg/kg, plasma 2 hours post dose
Description: Single dose Compound 9 (50 mg/kg) was administered orally to mice and plasma was collected at indicated time points. Compound 9 levels were measured by LC/MS. Plasma was harvested from mice 2 hours post dose and spiked with ^15N5-AMP and a TNAP inhibitor. ^15N5-ADO levels were measured by LC/MS.

human plasma CD73 = human plasma CD73 (Homo sapiens (Human), UniProt P21589); experiment: Inhibition of CD73 in human plasma, LC/MS conversion of 15N5-AMP into 15N5-ADO; assay type: biochemical
Description: The potency of Compound 9 was evaluated against recombinant CD73 and CD73-expressing SK-MEL-28 cells using a malachite green assay. Inhibition of CD73 in plasma was measured using LC/MS to assess conversion of ^15N5-AMP into ^15N5-ADO. FIG. 4A indicates the nanomolar inhibition of CD73 cells from both human and mouse sources. […] Inhibition of CD73 in plasma was measured using LC/MS to assess conversion of ^15N5-AMP into ^15N5-ADO.

[2] = biological target: Eurofins Express Diversity Kinase Profile Panel (45 targets); experiment: Eurofins Express Diversity Kinase Profile Panel; assay type: biochemical
Description: Using Compound 9, the activity of cell surface CD39 was assessed using K562 cells expressing human CD39 and Kinase-Glo. Activity of recombinant human ENTPD2 and ENTPD3 was assessed using a malachite green assay. […] Compound 9 was screened in the Eurofins Safety Screen Panel and the Eurofins Express Diversity Kinase Profile Panel. In the Safety Panel, 1/87 targets were inhibited at >50% at 10 μM of Compound 9. The PDE3 enzyme was inhibited at 59%.

A375 cells = experiment: Viability of A375 cells, CellTiter-Glo; assay type: cell-based, human; conditions: 100 μM, 3 days
Description: as §1

CT26 cells = experiment: CT26 subcutaneous tumor model in Balb/c mice, tumor volume; assay type: in vivo, mouse; conditions: 100 mg/kg orally BID from day one post implant
Description: (§2) Compounds of the invention show potent anti-tumor effects, evidenced in reducing tumor volume in a mouse model. In one model, EG7 cells were implanted subcutaneously into C57BL/6 mice. Compound 9 or vehicle was orally administered BID starting day one post implant (N=10 per group). […] In another model, EG7 cells were implanted subcutaneously into C57BL/6 mice. Compound 9 was orally administered BID (100 mg/kg) starting day one post implant (N=10 per group). Vehicle was orally administered BID starting day one post implant (N=20) until day five post implant, at which time, mice were randomized by tumor volume into two groups. Compound 9 (100 mg/kg) or vehicle was orally administered BID to N=10 per group starting day six post implant. […] FIGS. 13B-D show individual replications of this measurement for each dosing. FIG. 13B is vehicle. FIG. 13C is dosing of Compound 9 started on day 1. FIG. 13D is Compound 9 started on day 6. In another model, CT26 cells were implanted subcutaneously into Balb/c mice. 100 mg/kg Compound 9 or vehicle was orally administered BID starting day one post implant (N=10 per group).

EG7 cells = experiment: EG7 subcutaneous tumor model in C57BL/6 mice, tumor volume; assay type: in vivo, mouse
Description: EG7 cells were implanted subcutaneously into C57BL/6 mice. Compound 9 (50 mg/kg) or vehicle was orally administered BID starting day one post implant (N=10 per group). Tumors were excised on day 14 and analyzed by flow cytometry. Compound 9 increased the % CD8+ cells of CD45+ cells as shown in FIG. 1A (* indicates p<0.05). EG7 cells were implanted subcutaneously into C57BL/6 mice. Anti-CD8 antibody was dosed i.p. on days −1, 0, 5, and 10. Compound 9 (50 mg/kg) or vehicle was orally dosed BID starting on day 1.
as §2
EG7 cells were implanted subcutaneously into C57BL/6 mice for each experiment. Anti-PD-L1 antibody (5 mg/kg) was dosed i.p. on Study Days 3, 5, 7, 9, 11, 13. Compound 9 (100 mg/kg) or vehicle was orally administered BID starting one day post implant. […] FIGS. 7B-7E show the individual replications of this measurement for each dosing. FIG. 7B is vehicle, FIG. 7C is anti-PD-L1 antibody, FIG. 7D is Compound 9, and FIG. 7E is Compound 9+ Anti-PD-L1.
Oxaliplatin was dosed i.p. 6 mg/kg on Study Days 7 and 14. Compound 9 (100 mg/kg) or vehicle was orally administered BID starting one day post implant. […] FIGS. 8B-8E show the individual replications of this measurement for each dosing. FIG. 8B is vehicle, FIG. 8C is oxaliplatin, FIG. 8D is Compound 9, and FIG. 8E is Compound 9+oxaliplatin.
Doxorubicin was dosed i.v. 2.5 mg/kg on Study Days 7 and 14. Compound 9 (50 mg/kg) or vehicle was orally administered BID starting one day post implant. […] FIGS. 9B-9E show the individual replications of this measurement for each dosing. FIG. 9B is vehicle, FIG. 9C is doxorubicin, FIG. 9D is Compound 9, and FIG. 9E is Compound 9+doxorubicin.
Docetaxel was dosed i.p. 5 mg/kg on Study Days 5, 12, and 19. Compound 9 (100 mg/kg) or vehicle was orally administered BID starting one day post implant. […] show the individual replications of this measurement for each dosing. FIG. 12B is vehicle, FIG. 12C is docetaxel, FIG. 12D is Compound 9, and FIG. 12E is Compound 9+docetaxel.

CD73 activity in cancer patient serum, sequence (P21589 27-574): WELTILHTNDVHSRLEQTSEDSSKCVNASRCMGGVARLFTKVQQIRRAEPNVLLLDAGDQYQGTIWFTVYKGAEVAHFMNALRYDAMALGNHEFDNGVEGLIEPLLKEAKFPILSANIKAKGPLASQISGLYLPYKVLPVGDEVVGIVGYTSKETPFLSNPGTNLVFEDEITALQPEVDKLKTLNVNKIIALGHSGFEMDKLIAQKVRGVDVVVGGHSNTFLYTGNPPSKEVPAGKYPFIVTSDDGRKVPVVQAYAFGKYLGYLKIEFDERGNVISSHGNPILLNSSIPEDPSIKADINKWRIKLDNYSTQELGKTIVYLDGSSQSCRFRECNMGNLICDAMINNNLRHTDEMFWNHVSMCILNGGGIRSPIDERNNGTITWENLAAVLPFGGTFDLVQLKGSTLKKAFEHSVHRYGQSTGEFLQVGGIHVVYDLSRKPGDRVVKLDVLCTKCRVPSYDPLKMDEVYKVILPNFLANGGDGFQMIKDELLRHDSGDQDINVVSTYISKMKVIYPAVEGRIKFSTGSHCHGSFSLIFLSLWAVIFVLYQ
human plasma CD73, sequence (P21589 27-574): as above
mouse plasma CD73, sequence (Q61503 29-576): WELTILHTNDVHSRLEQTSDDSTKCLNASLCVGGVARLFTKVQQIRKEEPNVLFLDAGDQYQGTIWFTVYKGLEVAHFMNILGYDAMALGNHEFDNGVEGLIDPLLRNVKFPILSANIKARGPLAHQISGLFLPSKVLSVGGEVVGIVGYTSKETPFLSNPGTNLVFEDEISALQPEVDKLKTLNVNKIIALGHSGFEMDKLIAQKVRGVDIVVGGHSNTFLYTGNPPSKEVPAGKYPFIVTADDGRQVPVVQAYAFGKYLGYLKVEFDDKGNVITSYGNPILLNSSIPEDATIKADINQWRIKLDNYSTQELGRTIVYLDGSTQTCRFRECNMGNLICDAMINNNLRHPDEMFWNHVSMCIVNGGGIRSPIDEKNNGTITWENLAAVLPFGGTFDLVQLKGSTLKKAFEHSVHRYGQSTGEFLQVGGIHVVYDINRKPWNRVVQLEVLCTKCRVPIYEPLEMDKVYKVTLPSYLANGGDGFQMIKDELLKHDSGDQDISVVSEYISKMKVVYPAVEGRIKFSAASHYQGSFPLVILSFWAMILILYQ

C#C[C@@]1(O)[C@@H](COC(Cc2ccc(N3CCCNC3=O)cc2)(C(=O)O)C(=O)O)O[C@@H](n2cnc3c(N)nc(Cl)nc32)[C@@H]1O [Compound 9, 2-(((2R,3S,4R,5R)-5-(6-amino-2-chloro-9H-purin-9-yl)-3-ethynyl-3,4-dihydroxytetrahydrofuran-2-yl)methoxy)-2-(4-(2-oxotetrahydropyrimidin-1 (2H)-yl)benzyl)malonic acid] was tested, and the “inhibition of CD73 activity in esophageal cancer serum” value ([1]; esophageal cancer serum) was “sub-nanomolar”, the “inhibition of CD73 activity in HNSCC serum” value ([1]; head and neck squamous cell carcinoma serum) was “sub-nanomolar” and the “inhibition of CD73 activity in ovarian cancer serum” value ([1]; ovarian cancer serum) was “sub-nanomolar”. For the same compound, the “inhibition of CD73 activity in TNBC serum” value ([1]; triple-negative breast cancer serum) was “sub-nanomolar”, the “% divided cells of human CD8+ T cells” value (Human CD8+ T cells) was “comparable % divided cells” and the inhibition at 50 mg/kg (mouse plasma CD73) was 92%. The IC50 (human plasma CD73) was 0.38 nM, the “Kinase Panel targets inhibited at >50%” value [2] was “none of the 45 targets” and the “% cell survival of A375 cells” value (A375 cells) was “comparable % cell survival”. For the same compound, the “tumor volume, CT26” value (CT26 cells) was “decrease in tumor volume compared to vehicle”, the “tumor volume reduction, with or without CD8+ T cell depletion” value (EG7 cells; 50 mg/kg orally BID from day 1, anti-CD8 antibody i.p. days -1, 0, 5, 10) was “more of a tumor volume reduction” and the “tumor volume, established EG7 tumors” value (EG7 cells; 100 mg/kg orally BID starting day six post implant) was “decrease in tumor volume”. For the same compound, the “tumor volume, EG7, single agent and combination with doxorubicin” value (EG7 cells; Compound 9 50 mg/kg orally BID, doxorubicin i.v. 2.5 mg/kg days 7 and 14) was “reduction in tumor volume”, the “tumor volume, EG7, single agent and combination with anti-PD-L1 antibody” value (EG7 cells; Compound 9 100 mg/kg orally BID, anti-PD-L1 5 mg/kg i.p. days 3, 5, 7, 9, 11, 13) was “reduction in tumor volume” and the “tumor volume, EG7, single agent and combination with docetaxel” value (EG7 cells; Compound 9 100 mg/kg orally BID, docetaxel i.p. 5 mg/kg days 5, 12, 19) was “reduction in tumor volume”. The “tumor volume, EG7, single agent and combination with oxaliplatin” value (EG7 cells; Compound 9 100 mg/kg orally BID, oxaliplatin i.p. 6 mg/kg days 7 and 14) was “reduction in tumor volume” and the “tumor volume, EG7, dose response” value (EG7 cells; orally BID from day one post implant, increasing doses) was “further decrease in tumor volume with increasing doses”.
